According to patent US6737383B1, “Herbicidal oxadiazolidines” (priority 1999, dated 2004):

Columns and labels:
[1] = system: cocklebur; test: Test B pre/postemergence cocklebur; assay type: in vivo, Xanthium strumarium
Procedure, shortened: (§1)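 Response is a visual 0-to-10 score relative to untreated plants, where 0 means no effect and 10 means complete control, taken twelve to sixteen days after application. Treatments went onto soil at planting and onto foliage of 1- to 4-leaf plants, using a surfactant-containing non-phytotoxic solvent.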

[2] = system: purple nutsedge; test: Test B pre/postemergence purple nutsedge; assay type: in vivo, Cyperus rotundus; details: Postemergence
Procedure, shortened: as §1

[3] = system: wild oat; test: Test B pre/postemergence wild oat; assay type: in vivo, Avena fatua
Procedure, shortened: as §1

[4] = system: morningglory; test: Test B pre/postemergence morningglory; assay type: in vivo, Ipomoea hederacea
Procedure, shortened: as §1

[5] = system: duck salad; test: Test B flood test duck salad; assay type: in vivo, Heteranthera limosa
Procedure, shortened: (§2)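 Plants were grown to the 2-leaf stage before treatment with test chemical, then held in a greenhouse for twelve to sixteen days. Injury was visually rated against untreated controls on a 0–10 scale, where 0 is no effect and 10 is complete control.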

[6] = system: wheat; test: Test B pre/postemergence wheat; assay type: in vivo, Triticum aestivum
Procedure, shortened: as §1

[7] = system: rape; test: Test B pre/postemergence rape; assay type: in vivo, Brassica napus
Procedure, shortened: as §1

[8] = system: smallflower flatsedge; test: Test B flood test smallflower flatsedge; assay type: in vivo, Cyperus difformis
Procedure, shortened: as §2

[9] = system: surinam grass; test: Test B pre/postemergence surinam grass; assay type: in vivo, Brachiaria decumbens
Procedure, shortened: as §1

[10] = system: bamyardgrass; test: Test B flood test barnyardgrass; assay type: in vivo, Echinochloa crus-galli
Procedure, shortened: as §2

[11] = system: blackgrass; test: Test B pre/postemergence blackgrass; assay type: in vivo, Alopecurus myosuroides
Procedure, shortened: as §1

[12] = system: velvetleaf; test: Test B pre/postemergence velvetleaf; assay type: in vivo, Abutilon theophrasti
Procedure, shortened: as §1

[13] = system: pigweed; test: Test B pre/postemergence pigweed; assay type: in vivo, Amaranthus retroflexus
Procedure, shortened: as §1

[14] = system: corn; test: Test B pre/postemergence corn; assay type: in vivo, Zea mays
Procedure, shortened: as §1

[15] = system: rice; test: Test B flood test rice; assay type: in vivo, Oryza sativa
Procedure, shortened: as §2

[16] = system: bedstraw; test: Test B pre/postemergence bedstraw; assay type: in vivo, Galium aparine
Procedure, shortened: as §1

[17] = Postemergence, Rate 250 g/ha, scale 0 to 10, 0 no effect, 10 complete control
[18] = Postemergence, Rate 1000 g/ha, scale 0 to 10 (0 no effect, 10 complete control)
[19] = Preemergence, Rate 125 g/ha, scale 0 to 10 (0 no effect, 10 complete control)
[20] = Preemergence, Rate 250 g/ha, scale of 0 to 10 where 0 is no effect and 10 is complete control
[21] = Preemergence, Rate 500 g/ha, scale 0 (no effect) to 10 (complete control)
[22] = Rate 125 g/ha, Postemergence, scale 0 to 10, 0 no effect, 10 complete control
[23] = Rate 500 g/ha, Postemergence, 0 to 10 scale (0 no effect, 10 complete control)
[24] = Rate 1000 g/ha, Preemergence, scale 0 to 10 (0 no effect, 10 complete control)
[25] = Rate 125 g/ha, Postemergence section (flood test species), scale 0 to 10, 0 no effect, 10 complete control
[26] = Rate 500 g/ha, Postemergence section of Table B, 0 to 10 scale (0 no effect, 10 complete control)
[27] = flood test, listed under Postemergence, Rate 250 g/ha, scale 0 to 10, 0 no effect, 10 complete control

## CCN(CC)C(=O)n1oc(=O)n(-c2ccc(F)cc2)c1=O [Compound 3]
[1]; [17]
  Cocklebur plant response rating: 0
[1]; [18]
  Cocklebur plant response rating: 2
[1]; [19]
  Plant response rating, Cocklebur: 0
[1]; [20]
  Plant response rating, Cocklebur: 0
[1]; [21]
  Cocklebur plant response rating: 0
[1]; [22]
  Cocklebur plant response rating: 0
[1]; [23]
  Cocklebur plant response rating: 0
[1]; [24]
  Plant response rating, Cocklebur: 0
[2]; Rate 250 g/ha, scale 0 to 10, 0 no effect, 10 complete control
  Nutsedge plant response rating: 0
[2]; Rate 1000 g/ha, scale 0 to 10 (0 no effect, 10 complete control)
  Nutsedge plant response rating: 0
[2]; Rate 125 g/ha, scale 0 to 10, 0 no effect, 10 complete control
  Nutsedge plant response rating: 0
[2]; Rate 500 g/ha, 0 to 10 scale (0 no effect, 10 complete control)
  Nutsedge plant response rating: 0
[3]; [17]
  Wild oats plant response rating: 0
[3]; [18]
  Wild oats plant response rating: 0
[3]; [19]
  Plant response rating, Wild oats: 0
[3]; [20]
  Plant response rating, Wild oats: 0
[3]; [21]
  Wild oats plant response rating: 0
[3]; [22]
  Wild oats plant response rating: 0
[3]; [24]
  Plant response rating, Wild oats: 0
[4]; [17]
  Morningglory plant response rating: 0
[4]; [18]
  Morningglory plant response rating: 0
[4]; [19]
  Plant response rating, Morningglory: 0
[4]; [20]
  Plant response rating, Morningglory: 0
[4]; [21]
  Morningglory plant response rating: 0
[4]; [22]
  Morningglory plant response rating: 0
[4]; [23]
  Morningglory plant response rating: 0
[4]; [24]
  Plant response rating, Morningglory: 0
[5]; [18]
  Ducksalad plant response rating: 0
[5]; [25]
  Ducksalad plant response rating: 0
[5]; [26]
  Ducksalad plant response rating: 0
[5]; [27]
  Ducksalad plant response rating: 0
[6]; [17]
  Wheat plant response rating: 0
[6]; [18]
  Wheat plant response rating: 0
[6]; [19]
  Plant response rating, Wheat: 0
[6]; [20]
  Plant response rating, Wheat: 0
[6]; [21]
  Wheat plant response rating: 0
[6]; [22]
  Wheat plant response rating: 0
[6]; [24]
  Plant response rating, Wheat: 0
[7]; [17]
  Rape plant response rating: 0
[7]; [18]
  Rape plant response rating: 0
[7]; [19]
  Plant response rating, Rape: 0
[7]; [20]
  Plant response rating, Rape: 0
[7]; [21]
  Rape plant response rating: 0
[7]; [22]
  Rape plant response rating: 0
[7]; [23]
  Rape plant response rating: 0
[7]; [24]
  Plant response rating, Rape: 0
[8]; [18]
  S. Flatsedge plant response rating: 0
[8]; [25]
  S. Flatsedge plant response rating: 0
[8]; [27]
  S. Flatsedge plant response rating: 0
[9]; [17]
  B. signalgrass plant response rating: 0
[9]; [18]
  B. signalgrass plant response rating: 0
[9]; [19]
  Plant response rating, B. signalgrass: 0
[9]; [20]
  Plant response rating, B. signalgrass: 0
[9]; [21]
  B. signalgrass plant response rating: 0
[9]; [22]
  B. signalgrass plant response rating: 0
[9]; [23]
  B. signalgrass plant response rating: 0
[9]; [24]
  Plant response rating, B. signalgrass: 0
[10]; [18]
  Barnyardgrass plant response rating: 0
[10]; [25]
  Barnyardgrass plant response rating: 0
[10]; [26]
  Barnyardgrass plant response rating: 0
[10]; [27]
  Barnyardgrass plant response rating: 0
[11]; [17]
  Blackgrass plant response rating: 0
[11]; [18]
  Blackgrass plant response rating: 3
[11]; [19]
  Plant response rating, Blackgrass: 0
[11]; [20]
  Plant response rating, Blackgrass: 0
[11]; [21]
  Blackgrass plant response rating: 0
[11]; [22]
  Blackgrass plant response rating: 0
[11]; [23]
  Blackgrass plant response rating: 0
[11]; [24]
  Plant response rating, Blackgrass: 0
[12]; [17]
  Velvetleaf plant response rating: 0
[12]; [18]
  Velvetleaf plant response rating: 0
[12]; [19]
  Plant response rating, Velvetleaf: 0
[12]; [20]
  Plant response rating, Velvetleaf: 0
[12]; [21]
  Velvetleaf plant response rating: 0
[12]; [22]
  Velvetleaf plant response rating: 0
[12]; [24]
  Plant response rating, Velvetleaf: 0
[13]; [17]
  Redroot pigweed plant response rating: 0
[13]; [18]
  Redroot pigweed plant response rating: 0
[13]; [19]
  Plant response rating, Redroot pigweed: 0
[13]; [20]
  Plant response rating, Redroot pigweed: 0
[13]; [21]
  Redroot pigweed plant response rating: 0
[13]; [22]
  Redroot pigweed plant response rating: 0
[13]; [23]
  Redroot pigweed plant response rating: 0
[13]; [24]
  Plant response rating, Redroot pigweed: 0
[14]; [17]
  Corn plant response rating: 0
[14]; [18]
  Corn plant response rating: 0
[14]; [19]
  Plant response rating, Corn: 0
[14]; [20]
  Plant response rating, Corn: 0
[14]; [21]
  Corn plant response rating: 0
[14]; [22]
  Corn plant response rating: 0
[14]; [23]
  Corn plant response rating: 0
[14]; [24]
  Plant response rating, Corn: 0
[15]; [18]
  Rice plant response rating: 0
[15]; [25]
  Rice plant response rating: 0
[15]; [26]
  Rice plant response rating: 0
[15]; [27]
  Rice plant response rating: 0
[16]; [17]
  Bedstraw plant response rating: 0
[16]; [18]
  Bedstraw plant response rating: 0
[16]; [19]
  Plant response rating, Bedstraw: 0
[16]; [20]
  Plant response rating, Bedstraw: 0
[16]; [21]
  Bedstraw plant response rating: 0
[16]; [22]
  Bedstraw plant response rating: 0
[16]; [23]
  Bedstraw plant response rating: 0
[16]; [24]
  Plant response rating, Bedstraw: 0
